Source: US20040086569A1, “Active agent delivery systems, medical devices, and methods” (Medtronic, Inc., priority 2002, published 2004)

Columns and labels:
[1] = Dissolution of coumarin from PL75D/TP blend cap-coated shims in PBS; format: physicochemical; settings: FIG. 19
Method: P[…] was dried at 70° C. at reduced pressure overnight. The dried pellets were compressed between two plates that were pre-heated to 230° C. and maintained for about 5 minutes. After the sample was cooled down to room temperature, it was placed in a vial filled with THF and stirred until dissolved (by visual observation). […] Coumarin was also dissolved in THF. The concentrations of all the solutions were about 1 wt-%. TL solution and coumarin solution were mixed at a weigh ratio of 1:1. This mixture is the base coating solution of a reservoir system. TP solution and P[…] solution were mixed at various weight ratios to make five different mixtures with the weight ratios of TP to P[…] being 100:0, 75:25, 50:50, 25:75, and 0:100. These solutions are referred to herein as cap coating solutions of the reservoir system. Dissolution samples were prepared with stainless steel (316L) shims (12.1×38.1 mm^2) that were cleaned by rinsing with THF. The cleaned shims were coated with the […] solution. The coated shims were allowed to dry overnight under nitrogen. […] This thermal treatment led to formation of a primer on the surface of the shims that promoted their adhesion with polymer/active agent layers. […] The concentration of coumarin in all these solutions was measured with a liquid chromatography (HP 1090) that was equipped with a UV detector. […]

[2] = Merck Index; cited from earlier work

SMILES: O=c1ccc2ccccc2o1 [coumarin]
- Release rate, pure cap-coat polymers compared ([1]; 100% PL75D versus 100% TP cap coat): release much faster from a 100% PL75D coated shim than that from 100% TP coated shim
- Release rates from the PL75D/TP blends ([1]; cap coat blends): between that from the two pure polymers
- Volume of cold water that dissolves one gram [2]: 400 mL
